One may read the viability as a read-out of living cells in per cent, often relative to untreated cells.

Like-named read-outs stand apart in the source and are kept apart here.

Data set [1] is described as follows: PAMP screen: viability of human moDCs with PRR agonist and 22:0 Lyso PC. The conditions noted are these: human, human monocyte-derived dendritic cells (moDCs), No PAMP, 20 μM 22:0 Lyso PC alone, human moDCs, read-out: Relative Viability (%) ± SD. Type of data set: cell-based. The method, then:
Pathogen-Associated Molecular Pattern (PAMP) Screen. Innate immune signaling pathway agonists were purchased from Invivogen. Lyophilized stocks were reconstituted and stored according to manufacturer's instructions and at recommended concentrations. […] Innate immune signaling agonists were diluted in R10 media to the manufacturer's recommended working concentration and then added onto cells. 22:0 Lyso PC was then reconstituted from a lyophilized stock in R10 and then further diluted. The lipid was added onto cells at a final concentration of 20 μM. Cells were incubated for 2 days, then cultures were collected for endpoint analyses.
(§1) Quantification of Cell Viability.

The nature of data set [2]: Solubility of 22:0 Lyso PC (observation). It counts as physicochemical.
Data set [3] relates to human monocyte-derived dendritic cells (moDCs). The data set is described as follows: Lipid titration: viability of human moDCs (CellTiter-Glo). On the technique in general: Cellular ATP, detected with luciferase, serves as a proxy for viable cell number.
Method: Lipid Titration. After 6 days of differentiation into moDC, cells were collected and counted. Cells were replated at 100,000 cells/well in R10 media in 96-well flat bottom tissue culture-treated plates. LPS, serotype 055:B5 (Enzo Life Sciences) was added to a final concentration of 1 μg/mL in each well. After the addition of LPS, lipids were prepared. […] After two days of culture, cell cultures were used for endpoint analyses.
Endpoint Analyses. After culturing moDCs with PAMPs and DAMPs for two days, supernatant and cell samples were collected for analysis. Cells in culture were pelleted by centrifugation at 400×g for 5 min.
(§2) Quantification of Cell Viability. Cell viability was assessed by quantifying the presence of ATP as an indicator of metabolically active cells using the CellTiter-Glo Luminescent Cell Viability Assay (Promega). Metabolic activity was assessed following manufacturer's instructions. The CellTiter-Glo reagent was mixed with the cell pellets and remaining supernatant, and transferred to a white, opaque 96-well plate. Luminescence was measured on all wavelengths on a Spectramax iD3 plate reader (Molecular Devices) using an integration time of 500 ms. Percent viability was calculated relative to the control condition of moDCs treated with LPS.
Statistical Analyses. […] For each tested condition, cells from each donor were plated to be tested in triplicate.
The test system is the same in data set [4]. The data set is described as follows: Lipid titration: IL-1β secretion by LPS-activated human moDCs. Type of data set: cell-based. The protocol: Quantification of IL-1beta Secretion. IL-1beta secretion was assessed using the ELISA MAX Deluxe Set Human IL-1beta kit (Biolegend). ELISAs were performed according to manufacturer's instructions with the following modifications: i) total sample volume for incubation was reduced from […] the top standard was prepared at […], with two-fold dilutions to […]; and iii) sample incubation was completed overnight at 4 C on an orbital shaker. […] To determine IL-1beta concentration in supernatants, sample IL-1beta concentrations were interpolated using a standard curve via 4PL analysis on GraphPad Prism 9 (GraphPad Software). The interpolated results of samples were then adjusted for any dilutions made to the supernatant.

Data set [5] has the same test system. The data set is described as follows: DAMP screen: viability of human moDCs (CellTiter-Glo).
Method: Danger-Associated Molecular Pattern (DAMP) Screen. After 6 days of differentiation into moDC, cells were collected and counted. Cells were plated at 100,000 cells/well in R10 media in 96-well flat bottom tissue culture-treated plates. LPS, serotype O55:B5 (Enzo Life Sciences) was added to a final concentration of 1 μg/mL in each well. […] Cells were incubated at 37° C., 5% CO2 for two days. Cell cultures were then used for endpoint analyses.
Endpoint Analyses. After culturing moDCs with PAMPs and DAMPs for two days, supernatant and cell samples were collected for analysis.
as §2
Data set [6] relates to B16-F10 mouse melanoma tumor. The data set is described as follows: Therapeutic whole tumor lysate vaccine in B16F10 tumor-bearing mice. It counts as in vivo, mouse (C57BL/6J). The protocol: Ex vivo whole tumor lysate preparation. Syngeneic whole tumor lysates (WTL) were prepared from tumors explants of unimmunized tumor-bearing mice. Briefly, tumors from unimmunized mice bearing a tumor 10-12 mm of size were mechanically disaggregated using gentle MACS dissociator (Miltenyi Biotec) and enzymatically digested using the tumor Dissociation Kit (Miltenyi Biotec) following the manufacturer's protocol. After digestion, tumor cell suspensions were washed with PBS and passed through 70 um and then 30 um filters. Single cell suspension was depleted of CD45+ cells using anti-CD45 TILs microbeads (Miltenyi Biotec). Tumor cells were then counted and resuspended at 1×10^7 cells/ml then lysed by 3-4 cycles of freeze-thawing. The lysed cells were further disrupted by repeatedly passing the material through an 18G, then 21G, and finally 25G needles. Lysate was filtered again through 70 um and 30 um cell strainers and stored in aliquots at −80° C. until use. WTL were used for immunotherapy at a concentration equivalent to 5.75E5 tumor cells per mouse.
Immunotherapeutic immunization and tumor challenges. For immunizations in the context of an immunotherapeutic approach, C57BL/6J were injected on the left flank with 5×10^4 B16F10 cells. […] Mice received two boost injections at 7-day intervals.
Quantification and statistical analysis. In in vivo studies, n refers to the number of animals per condition from one or two independent experiments. Statistical differences were calculated by using unpaired two-tailed Student's t test, or one-way ANOVA with Tukey post-test. Dependent samples were analyzed with paired t tests. Statistical significance for experiments with more than two groups was tested with two-way ANOVA with Tukey multiple comparison test correction. All experiments were analyzed using Prism 7 (GraphPad Software). Graphical data was shown as mean values with error bars indicating the SD or SEM. P values of <0.05 (*), <0.01 (**) or <0.001(***);%0.0001 (****) indicated significant differences between groups.

The subject of another data set is human PBMCs. The data set is described as follows: Viability of human PBMCs (CellTiter-Glo). It counts as cell-based. To be noted: 2 days post-activation; lipids combined with R848. The method, then: Isolation of PBMCs from Whole Blood. PBMCs were isolated from whole blood using density gradient centrifugation with Ficoll-Paque PLUS (Cytivia). Whole blood was diluted 1:1 with PBS, layered on top of Ficoll-Paque PLUS and centrifuged at 1000×g for 30 minutes at room temperature. PBMCs were collected, washed twice in PBS, and incubated with Ack lysis buffer (Lonza) to remove any remaining red blood cells.
Cell Culture and Stimulation. […] Cells were plated at 1×10^5 (canine cells) or 1×10^6 (human cells) per well in 96-well flat bottom tissue culture plates. Lyophilized Vaccigrade R848 (Invivogen) was reconstituted and diluted according to manufacturer's recommendations and added to cells at a final concentration of 1 μg/mL.
as §1

The mark [7] stands for this setting: WTL 80 ug + R848 100 ug + 65 ug lipid in […]% KP407, 2 boosts every 7 days.

Regarding `CCCCCCCCCCCCCCCCCCCCCC(=O)OC[C@@H](O)COP(=O)([O-])OCC[N+](C)(C)C` [22:0 LYSO PC, 1-behenoyl-2-hydroxy-sn-glycero-3-phosphocholine], the viability at 2 days, 20 μM in data set [1] (Table 1-7, 10 donors) turned out to be 120%; in data set [1] (Table 1-8), 120%. The “solubility in aqueous solution (in words)” value in data set [2] was “mostly insoluble in aqueous solution”. For the same compound, in data set [2] (ethanol or methanol), the “solubility in alcohols (in words)” value is listed as “soluble in ethanol or methanol”. Further, the figures for the “moDC viability (in words)” value in data set [3] (10.3 μM lipid + LPS) and in data set [3] (20.6 μM lipid + LPS) were “retained high viability” and “reduced cell viability somewhat”, respectively. Moreover, the “Relative Viability (%) ± SD” value in data set [3] (10.3 μM lipid + LPS 1 μg/mL, 2 days, relative to LPS-treated moDCs, Table 1-5) is 89.1%; in data set [5] (41.3 μM lipid + LPS 1 μg/mL, 2 days, relative to LPS-treated moDCs, Table 1-2), 47.6%; in data set [5] (82.5 μM lipid + LPS 1 μg/mL, 2 days, relative to LPS-treated moDCs, Table 1-1) it was 14.6%; in data set [5] (82.5 μM lipid + LPS, selected lipids, Table 1-3 (repeats Table 1-1)), 14.6%. Besides, in data set [4] (10.3 μM 22:0 Lyso PC vs 82.5 μM PGPC, + LPS), the “concentration lower than PGPC for comparable IL-1beta secretion” value was ~8 times. The “IL-1beta secretion (in words)” value in data set [4] (10.3 μM lipid + LPS) was “retained its ability to induce IL-1beta secretion”; in data set [4] (20.6 μM lipid + LPS), “increased IL-1beta secretion”. For the same compound, the IL-1β secretion in data set [4] (10.3 μM lipid + LPS 1 μg/mL, 2 days, Table 1-5) is listed as 224.8 pg/mL; in data set [4] (20.6 μM lipid + LPS, human moDCs, 4 donors, mean (SD in wrapped line below)) it was 512.6 pg/mL. Besides, the “lipid activity index, ranking in words” value in data set [4] (lipid 1.3-82.5 μM + LPS) is on record as “most potent activity by far”. For the same compound, in data set [4] (reciprocal of lowest concentration giving IL-1β two-fold over LPS x highest IL-1β signal, lipid 1.3-82.5 μM + LPS), the “Activity Units (AU) ± SD (lipid activity index)” value was determined as 370.00 ± 376.36 AU. In addition, in data set [6] (setting [7]), the “survival of tumor-bearing mice (in words)” value is given as “survived longer”. Moreover, in data set [6] (setting [7]), the “tumor growth kinetics (in words)” value is on record as “delayed tumor growth kinetics”. The “benefit of vaccination (in words)” value in data set [6] (tumor lysate + R848 + lipid in PBS) is “No significant benefit”. Besides, the “human PBMC viability (in words)” value in the data set on human PBMCs is “remain viable”.
